Key:
Assay type in all cases: cell-based
HBsAg = experiment: PHH HBV natural infection assay, HBsAg (alphalisa); settings: Hepatitis B virus, Hepatocyte, 72 h, read-out: HBsAg IC50, HBV-infected primary human hepatocytes, supernatant, compound medium refreshed two times with 72-hour interval
Experimental: (§1) Detailed procedures regarding primary human hepatocyte (PHH) HBV natural infection assay are described as below. One tube of frozen PHH (10 million cells) is thawed in 37° C. water bath and then transferred to 20 mL of PHH thawing medium (Sigma, InVitroGRO HT Medium, Cat. S03319) with gently mixing. The cells were then centrifuged at […] for 5 min, the supernatant was discarded and the tube was refilled with 25 mL of PHH plating medium (Sigma, InVitroGRO CP Medium, Cat. S03317). The tube was shaken very gently to re-suspend all cells, and then 50 μl of cells were transferred to each well 384-well collagen I coated plate with appropriate liquid handling equipment, e.g. Integra VIAFLO384 or Agilent Bravo. The cells were then cultured for 24 hours in a cell incubator. For HBV infection, after PHH attachment on the culture plate, the plating medium was removed and replenished with PHH culture medium containing HBV virus. The PHH culture medium was prepared with Dulbecco's Modified Eagle Medium (DMEM)/F12 (1:1 in volume ratio) containing 10% fetal bovine serum (Gibco, Cat. 10099141), 5 ng/mL human epidermal growth factor (Gibco, Cat.PHG0311L), 20 ng/mL dexamethasone (Sigma, Cat.D4902-100 mg), 250 ng/mL human recombinant insulin (Gibco, Cat.41400045) and 100 U/mL penicillin. HBV virus at 200 genome equivalent (GE) per cell with 4% PEG8000 (Sigma, Cat.P1458) containing culture medium were added to the PHH culture medium for infection. The cells were then cultured for 24 hours in cell incubator. Then the cell culture supernatant was removed. The HBV-infected PHH were cultured with sandwich culture method with PHH culture medium containing 1% DMSO and 0.25 mg/mL matrix gel for 72 hours. The supernatant was then refreshed with PHH culture medium containing different concentrations of testing compounds for two times with 72-hour interval. At the end of treatment, the supernatant was collected for viral markers measurements, including HBsAg, HBeAg, HBV DNA and cytotoxicity. HBsAg and HBeAg were detected using alphalisa method using their specific antibodies. For HBV DNA detection, HBV DNA Quantitative Fluorescence Diagnostic Kit (Sansure Biotech Inc.) was used following the manufacture's protocol. Cytotoxicity was determined using Cell Counting Kit-8 (CCK8, Dojindo Molecular Technologies, Inc.).
(§2) The compounds of the present invention were tested for their capacity to inhibit HBsAg and HBeAg as described herein.

HBeAg = experiment: PHH HBV natural infection assay, HBeAg (alphalisa); settings: Hepatitis B virus, Hepatocyte, 72 h, read-out: HbeAg IC50, HBV-infected primary human hepatocytes, supernatant, compound medium refreshed two times with 72-hour interval
Experimental: as §1, §2

[1] = PHH natural infection assay, cytotoxicity (Cell Counting Kit-8); settings: human, HBV-infected primary human hepatocytes, CCK8, end of treatment
Experimental: as §1

Compound | IC50 (HBsAg) [µM] | IC50 (HBeAg) [µM] | CC50 at 144 h [1] [µM]
COCCOCCOCC(=O)NS(=O)(=O)c1ccc(C(=O)N[C@H]2CC3(C2)C[C@H](c2nc4cc(Cl)ccc4o2)C3)o1 (single isomer, unassigned) [Example 79, (Sa)—N-[6-(5-chloro-1,3-benzoxazol-2-yl)spiro[3.3]heptan-2-yl]-5-[[2-[2-(2-methoxyethoxy)ethoxy]acetyl]sulfamoyl]furan-2-carboxamide, or (Ra)—N-[6-(5-chloro-1,3-benzoxazol-2-yl)spiro[3.3]heptan-2-yl]-5-[[2-[2-(2-methoxyethoxy)ethoxy]acetyl]sulfamoyl]furan-2-carboxamide] | 6.13 | 4.65 | > 10
O=C(NC1CC2(C1)CC(c1nc3cc(Cl)ccc3o1)C2)c1ccc(C(F)(F)F)o1 (stereo not drawn) [Example 1, N-[6-(5-chloro-1,3-benzoxazol-2-yl)spiro[3.3]heptan-2-yl]-5-(trifluoromethyl)furan-2-carboxamide] | 3.63 | 2.29 | 96.8
N#Cc1ccc(C(=O)NC2CC3(C2)CC(c2nc4cc(Cl)ccc4o2)C3)o1 (stereo not drawn) [Example 2, N-[6-(5-chloro-1,3-benzoxazol-2-yl)spiro[3.3]heptan-2-yl]-5-cyano-furan-2-carboxamide] | 5.86 | 4.06 | 61.6
O=C(NC1CC2(C1)CC(c1nc3cc(Cl)ccc3o1)C2)c1ccc(Br)o1 (stereo not drawn) [Example 3, 5-bromo-N-[6-(5-chloro-1,3-benzoxazol-2-yl)spiro[3.3]heptan-2-yl]furan-2-carboxamide] | 9.79 | 7.64 | 96.2
O=C(NC1CC2(C1)CC(c1nc3cc(Cl)ccc3o1)C2)c1cc(Br)co1 (stereo not drawn) [Example 4, 4-bromo-N-[6-(5-chloro-1,3-benzoxazol-2-yl)spiro[3.3]heptan-2-yl]furan-2-carboxamide] | 5.57 | 2.94 | 56
O=C(NC1CC2(C1)CC(c1nc3cc(Cl)ccc3o1)C2)c1occc1Br (stereo not drawn) [Example 5, 3-bromo-N-[6-(5-chloro-1,3-benzoxazol-2-yl)spiro[3.3]heptan-2-yl]furan-2-carboxamide] | 8.19 | 6.29 | 73.2
O=C(NC1CC2(C1)CC(c1nc3cc(Cl)ccc3o1)C2)c1ccc(Cl)o1 (stereo not drawn) [Example 6, 5-chloro-N-[6-(5-chloro-1,3-benzoxazol-2-yl)spiro[3.3]heptan-2-yl]furan-2-carboxamide] | 2.77 | 2.08 | > 100
CC(C)c1ccc(C(=O)NC2CC3(C2)CC(c2nc4cc(Cl)ccc4o2)C3)o1 (stereo not drawn) [Example 7, N-[6-(5-chloro-1,3-benzoxazol-2-yl)spiro[3.3]heptan-2-yl]-5-isopropyl-furan-2-carboxamide] | 3.57 | 1.34 | 85.9
COc1ccc(C(=O)NC2CC3(C2)CC(c2nc4cc(Cl)ccc4o2)C3)o1 (stereo not drawn) [Example 8, N-[6-(5-chloro-1,3-benzoxazol-2-yl)spiro[3.3]heptan-2-yl]-5-methoxy-furan-2-carboxamide] | 7.96 | 5.84 | 94.2
COCc1ccc(C(=O)NC2CC3(C2)CC(c2nc4cc(Cl)ccc4o2)C3)o1 (stereo not drawn) [Example 9, N-[6-(5-chloro-1,3-benzoxazol-2-yl)spiro[3.3]heptan-2-yl]-5-(methoxymethyl)furan-2-carboxamide] | 1.57 | 1.01 | 91
O=C(NC1CC2(C1)CC(c1nc3cc(Cl)ccc3o1)C2)c1ccc(C(=O)C2CC2)o1 (stereo not drawn) [Example 10, N-[6-(5-chloro-1,3-benzoxazol-2-yl)spiro[3.3]heptan-2-yl]-5-(cyclopropanecarbonyl)furan-2-carboxamide] | 3.35 | 2.94 | 96.1
NC(=O)c1ccc(C(=O)NC2CC3(C2)CC(c2nc4cc(Cl)ccc4o2)C3)o1 (stereo not drawn) [Example 11, N2-[6-(5-Chloro-1,3-benzoxazol-2-yl)spiro[3.3]heptan-2-yl]furan-2,5-dicarboxamide] | 5.88 | 5.22 | > 10
O=C(NC1CC2(C1)CC(c1nc3cc(Cl)ccc3o1)C2)c1cc(C(F)(F)F)n[nH]1 (stereo not drawn) [Example 12, N-[6-(5-chloro-1,3-benzoxazol-2-yl)spiro[3.3]heptan-2-yl]-3-(trifluoromethyl)-1H-pyrazole-5-carboxamide] | 3.96 | 6.86 | 30.2
Cn1cc(C(=O)NC2CC3(C2)CC(c2nc4cc(Cl)ccc4o2)C3)cn1 (stereo not drawn) [Example 13, N-[6-(5-chloro-1,3-benzoxazol-2-yl)spiro[3.3]heptan-2-yl]-1-methyl-pyrazole-4-carboxamide] | 9.81 | 6.2 | > 100
C[S+]([O-])c1ccc(C(=O)NC2CC3(C2)CC(c2nc4cc(Cl)ccc4o2)C3)o1 (stereo not drawn) [Example 14, N-[6-(5-chloro-1,3-benzoxazol-2-yl)spiro[3.3]heptan-2-yl]-5-methylsulfinyl-furan-2-carboxamide] | 1.61 | 0.854 | 76.5
CS(=O)(=O)c1ccc(C(=O)NC2CC3(C2)CC(c2nc4cc(Cl)ccc4o2)C3)o1 (stereo not drawn) [Example 15, N-[6-(5-chloro-1,3-benzoxazol-2-yl)spiro[3.3]heptan-2-yl]-5-methylsulfonyl-furan-2-carboxamide] | 1.95 | 1.17 | 79
CCS(=O)(=O)c1ccc(C(=O)NC2CC3(C2)CC(c2nc4cc(Cl)ccc4o2)C3)o1 (stereo not drawn) [Example 16, N-[6-(5-chloro-1,3-benzoxazol-2-yl)spiro[3.3]heptan-2-yl]-5-ethylsulfonyl-furan-2-carboxamide] | 1.53 | 1.03 | 74
O=C(NC1CC2(C1)CC(c1nc3cc(Cl)ccc3o1)C2)c1ccc(S(=O)(=O)C2CC2)o1 (stereo not drawn) [Example 17, N-[6-(5-chloro-1,3-benzoxazol-2-yl)spiro[3.3]heptan-2-yl]-5-cyclopropylsulfonyl-furan-2-carboxamide] | 0.275 | 0.177 | 89.9
O=C(NC1CC2(C1)CC(c1nc3cc(Cl)ccc3o1)C2)c1ccc(S(=O)(=O)C2COC2)o1 (stereo not drawn) [Example 18, N-[6-(5-chloro-1,3-benzoxazol-2-yl)spiro[3.3]heptan-2-yl]-5-(oxetan-3-ylsulfonyl)furan-2-carboxamide] | 3.27 | 1.81 | 72.1
O=C(NC1CC2(C1)CC(c1nc3cc(Cl)ccc3o1)C2)c1ccc([S+]([O-])CC2CC2)o1 (stereo not drawn) [Example 19, N-[6-(5-chloro-1,3-benzoxazol-2-yl)spiro[3.3]heptan-2-yl]-5-(cyclopropylmethylsulfinyl)furan-2-carboxamide] | 0.036 | 0.045 | 94.5
O=C(NC1CC2(C1)CC(c1nc3cc(Cl)ccc3o1)C2)c1ccc(S(=O)(=O)CC2CC2)o1 (stereo not drawn) [Example 20, N-[6-(5-chloro-1,3-benzoxazol-2-yl)spiro[3.3]heptan-2-yl]-5-(cyclopropylmethylsulfonyl)furan-2-carboxamide] | 0.445 | 0.18 | 89.2
CC(C)C[S+]([O-])c1ccc(C(=O)NC2CC3(C2)CC(c2nc4cc(Cl)ccc4o2)C3)o1 (stereo not drawn) [Example 21, N-[6-(5-chloro-1,3-benzoxazol-2-yl)spiro[3.3]heptan-2-yl]-5-isobutylsulfinyl-furan-2-carboxamide] | 0.372 | 0.314 | 92.4
CC(C)CS(=O)(=O)c1ccc(C(=O)NC2CC3(C2)CC(c2nc4cc(Cl)ccc4o2)C3)o1 (stereo not drawn) [Example 22, N-[6-(5-chloro-1,3-benzoxazol-2-yl)spiro[3.3]heptan-2-yl]-5-isobutylsulfonyl-furan-2-carboxamide] | 0.506 | 0.264 | 75.6
O=C(NC1CC2(C1)CC(c1nc3cc(Cl)ccc3o1)C2)c1ccc(S(=O)(=O)CC2CCC2)o1 (stereo not drawn) [Example 23, N-[6-(5-chloro-1,3-benzoxazol-2-yl)spiro[3.3]heptan-2-yl]-5-(cyclobutylmethylsulfonyl)furan-2-carboxamide] | 0.321 | 0.883 | > 100

Reference: patent US20230286969A1, “AROMATIC SPIRO RING AMIDE DERIVATIVES FOR THE TREATMENT AND PROPHYLAXIS OF HEPATITIS B VIRUS INFECTION” (Hoffmann-La Roche Inc., priority 2020, published 2023)
